Test results: patent publication US20120076766A1, “Topical drug delivery system with dual carriers” (priority 2010, published 2012)

Key:
MRSA = experiment: Study III: human field study, diabetic foot lesion with cellulitus; format: in vivo; details: IV, for MRSA, 8 days following admission
Experimental: In this embodiment, the additional ingredient to hasten a third therapeutic tissue healing effect was added. This embodiment used vitamin D in a small but medically efficacious amount.

HL-60 cells = details: cited from earlier work

Q: With `CN[C@H](CC(C)C)C(=O)N[C@H]1C(=O)N[C@@H](CC(N)=O)C(=O)N[C@H]2C(=O)N[C@H]3C(=O)N[C@H](C(=O)N[C@H](C(=O)O)c4cc(O)cc(O)c4-c4cc3ccc4O)[C@H](O)c3ccc(c(Cl)c3)Oc3cc2cc(c3O[C@@H]2O[C@H](CO)[C@@H](O)[C@H](O)[C@H]2O[C@H]2C[C@](C)(N)[C@H](O)[C@H](C)O2)Oc2ccc(cc2Cl)[C@H]1O` [vancomycin, Vancomycin] as the compound, how does the “patient response to treatment” value (MRSA) read?
A: Its value is “did not respond”.

Q: For `C[S+](C)[O-]` [DMSO, dimethyl sulfoxide], which “amount at which results (desired cellular responses) occurred” value (HL-60 cells) is on record?
A: Its value is “less than 2%”.

Q: For vitamin D, which “amount at which results (desired cellular responses) occurred” value (HL-60 cells) is on record?
A: Its value is “about 100 nM”.

Q: What about the “subsequent retinoid-induced TGM2 expression” value (HL-60 cells; priming of the cells by pretreatment) of the same compound?
A: The value was “increases”.
